In ChEMBL document CHEMBL1147417, “Synthesis of new thiophene and benzo[b]thiophene hydrazide derivatives as human NPY Y(5) antagonists” (Bioorg Med Chem Lett, 2004):

Assays:
[1] = molecular target: T1, Neuropeptide Y receptor type 1 (Homo sapiens, UniProt P25929); assay: Human Neuropeptide Y1 receptor binding affinity
T1 sequence (P25929 whole entry): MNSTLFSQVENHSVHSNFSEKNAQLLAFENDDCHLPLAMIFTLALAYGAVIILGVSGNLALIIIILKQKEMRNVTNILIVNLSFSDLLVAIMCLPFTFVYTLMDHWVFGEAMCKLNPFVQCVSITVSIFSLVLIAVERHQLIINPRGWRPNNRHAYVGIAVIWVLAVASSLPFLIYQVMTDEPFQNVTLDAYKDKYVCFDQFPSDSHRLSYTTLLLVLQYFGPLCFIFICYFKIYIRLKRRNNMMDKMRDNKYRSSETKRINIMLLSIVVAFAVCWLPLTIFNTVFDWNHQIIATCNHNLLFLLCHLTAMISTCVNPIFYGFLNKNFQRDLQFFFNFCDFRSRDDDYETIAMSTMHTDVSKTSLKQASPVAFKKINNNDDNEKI

[2] = molecular target: T2, Neuropeptide Y receptor type 5 (Homo sapiens, UniProt Q15761); assay: Human Neuropeptide Y5 receptor binding affinity
T2 sequence (Q15761 whole entry): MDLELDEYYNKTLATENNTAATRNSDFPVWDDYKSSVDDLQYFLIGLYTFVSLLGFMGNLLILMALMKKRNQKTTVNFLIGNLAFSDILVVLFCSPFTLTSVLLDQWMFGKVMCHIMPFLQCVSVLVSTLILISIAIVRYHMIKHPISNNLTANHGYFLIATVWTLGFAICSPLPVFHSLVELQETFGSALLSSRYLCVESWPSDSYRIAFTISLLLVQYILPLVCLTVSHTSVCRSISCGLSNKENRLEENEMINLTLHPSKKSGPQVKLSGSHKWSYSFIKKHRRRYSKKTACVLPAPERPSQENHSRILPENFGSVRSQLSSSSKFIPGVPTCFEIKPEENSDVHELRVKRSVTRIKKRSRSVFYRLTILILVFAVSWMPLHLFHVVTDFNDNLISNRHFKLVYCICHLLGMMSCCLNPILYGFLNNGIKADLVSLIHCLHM

O=C(NNC(=O)[C@H]1CC[C@H](CNS(=O)(=O)c2ccc(Br)cc2)CC1)c1cccs1
IC50 [1]: > 10 µM
IC50 [2]: 0.0077 µM

O=C(NNC(=O)[C@H]1CC[C@H](CNS(=O)(=O)c2ccc(Br)cc2)CC1)c1cc2ccccc2s1
IC50 [1]: > 10 µM
IC50 [2]: 0.0284 µM

CC(C)c1cc(C(C)C)c(S(=O)(=O)NC[C@H]2CC[C@H](C(=O)NNC(=O)c3cccs3)CC2)c(C(C)C)c1
IC50 [1]: > 10 µM
IC50 [2]: 0.0477 µM

O=C(NNC(=O)[C@H]1CC[C@H](CNS(=O)(=O)c2ccccc2)CC1)c1cc2ccccc2s1
IC50 [1]: > 10 µM
IC50 [2]: 0.175 µM

Cc1ccc(S(=O)(=O)NC[C@H]2CC[C@H](C(=O)NNC(=O)c3cccs3)CC2)cc1
IC50 [1]: > 10 µM
IC50 [2]: 0.0204 µM

CC(C)c1cc(C(C)C)c(S(=O)(=O)NC[C@H]2CC[C@H](C(=O)NNC(=O)c3cc4ccccc4s3)CC2)c(C(C)C)c1
IC50 [1]: > 10 µM
IC50 [2]: 0.142 µM

O=C(NNC(=O)[C@H]1CC[C@H](CNS(=O)(=O)c2cccs2)CC1)c1cc2ccccc2s1
IC50 [1]: > 10 µM
IC50 [2]: 0.0115 µM

O=C(NNC(=O)[C@H]1CC[C@H](CNS(=O)(=O)c2cccs2)CC1)c1cccs1
IC50 [1]: > 10 µM
IC50 [2]: 0.0125 µM

O=C(NNC(=O)[C@H]1CC[C@H](CNS(=O)(=O)c2cccc3cccnc23)CC1)c1cccs1
IC50 [1]: > 10 µM
IC50 [2]: 0.147 µM

Cc1ccc(S(=O)(=O)NC[C@H]2CC[C@H](C(=O)NNC(=O)c3cc4ccccc4s3)CC2)cc1
IC50 [1]: > 10 µM
IC50 [2]: 0.0429 µM

O=C(NNC(=O)[C@H]1CC[C@H](CNS(=O)(=O)c2cccc3cccnc23)CC1)c1cc2ccccc2s1
IC50 [1]: > 10 µM
IC50 [2]: 0.0922 µM

O=C(NNC(=O)[C@H]1CC[C@H](CNS(=O)(=O)c2ccccc2)CC1)c1cccs1
IC50 [1]: > 10 µM
IC50 [2]: 0.0322 µM

O=C(NNC(=O)[C@H]1CC[C@H](CNS(=O)(=O)c2ccc(Cl)cc2)CC1)c1cccs1
IC50 [1]: > 10 µM
IC50 [2]: 0.0484 µM

O=C(NNC(=O)[C@H]1CC[C@H](CNS(=O)(=O)c2ccc(Cl)cc2)CC1)c1cc2ccccc2s1
IC50 [1]: > 10 µM
IC50 [2]: 0.279 µM
